# Data reported in patent publication US8017612B2, “Piperazine compound and use thereof as a HCV polymerase inhibitor” (priority 2006, dated 2011).
# Where a name gives a salt, the structure may show the parent alone.
# Columns and labels:
# [1] = target: T1, HCV polymerase (NS5B) type 1b (Hepatitis C virus genotype 1b, UniProt P26663); test: Assay of enzyme (HCV polymerase) inhibitory activity, type 1b enzyme; format: biochemical, HCV BK strain (type 1b)
# T1 construct: a region encoding NS5B (J Virol 1991 March, 65(3), 1105-13, 544 amino acids after deletion of 47 amino acids on the C-terminal); 6xHis (C); made in house; host or cells: Escherichia coli
# Procedure, shortened: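 Rxn: NS5B 1b (BK, ΔC47, His6) 0.5 μg/ml; substrate RNA 5 μg/ml; ATP/GTP/CTP 50 μM, UTP 2 μM + [5,6-3H]UTP; 20 mM Tris pH 7.5, 5 mM MgCl2, 50 mM NaCl, 1 mM EDTA/DTT. 25 °C, 60 min. Stop with TCA/pyrophosphate, filter, scintillation count; IC50 vs. untreated.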
# [2] = target: T2, HCV polymerase (NS5B) type 1a (Hepatitis C virus genotype 1a, UniProt P26664); test: Assay of enzyme (HCV polymerase) inhibitory activity, type 1a enzyme; format: biochemical, HCV type 1a (cloned from the blood of patients)
# T2 construct: made in house; host or cells: Escherichia coli (by the 'similar method' of the 1b enzyme)
# Procedure, shortened: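 NS5B Δ47 C-term His6 (type 1a, 1.5 μg/ml); substrate RNA 5 μg/ml; ATP/GTP/CTP 50 μM, UTP 2 μM + [5,6-3H]UTP; Tris pH 7.5, MgCl2 5 mM; 25° C, 60 min. TCA/pyrophosphate stop, GF/B filter, scintillation. IC50 vs no-compound control.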
# [3] = HCV polymerase inhibitory activity IC50, 1b, type 1b enzyme
# [4] = HCV polymerase inhibitory activity IC50, 1a, type 1a enzyme
# [5] = HCV polymerase inhibitory activity (IC50), 1b, type 1b enzyme 0.5 μg/ml, 25° C., 60 min
# [6] = HCV polymerase inhibitory activity (IC50), 1a, type 1a enzyme 1.5 μg/ml, 25° C., 60 min
Compound,"IC50 [1, 3] [nM]","IC50 [2, 4] [nM]","IC50 [1, 5] [nM]","IC50 [2, 6] [nM]"
"CCCc1ccc(CNC(=O)[C@H]2CN(c3nc(C)c(CCC(=O)O)s3)CCN2S(=O)(=O)c2ccc(OC(F)(F)F)cc2)cc1 [Example 826, 3-{4-methyl-2-[(R)-3-(4-propyl-benzylcarbamoyl)-4-(4-trifluoromethoxy-benzenesulfonyl)-piperazin-1-yl]-thiazol-5-yl}-propionic acid]",< 100,< 100,,
"CC(C)c1ccc(CNC(=O)[C@H]2CN(c3cnc(C(=O)O)cn3)CCN2S(=O)(=O)c2ccc(OC(F)(F)F)cc2)cn1 [Example 408, (R)-3-[(6-isopropyl-pyridin-3-ylmethyl)-carbamoyl]-4-(4-trifluoromethoxy-benzenesulfonyl)-3,4,5,6-tetrahydro-2H-[1,2′]bipyrazinyl-5′-carboxylic acid]",,,< 100,< 100
"CC(=O)Nc1ccc(S(=O)(=O)N2CCN(C(C)=O)CC2C(=O)NCc2ccc(C(F)(F)F)cc2)cc1 (centres unmarked) [Example 39, 4-acetyl-1-(4-acetylamino-benzenesulfonyl)-piperazine-2-carboxylic acid 4-trifluoromethyl-benzylamide]",,,> 1000,> 1000
"CC(=O)N1CCN(S(=O)(=O)c2ccc(OC(F)(F)F)c(I)c2)[C@@H](C(=O)NCc2ccc(C(C)C)cc2)C1 [Example 10, (R)-4-acetyl-1-(3-iodo-4-trifluoromethoxy-benzenesulfonyl)-piperazine-2-carboxylic acid 4-isopropyl-benzylamide]",,,< 100,< 100
"CC(=O)N1CCN(S(=O)(=O)c2ccc(C(C)C)cc2)C(C(=O)NCc2ccc(-c3ccccc3)cc2)C1 (centres unmarked) [Example 36, 4-acetyl-1-(4-isopropyl-benzenesulfonyl)-piperazine-2-carboxylic acid (biphenyl-4-ylmethyl)-amide]",,,> 1000,100 to 1000
"CCOC(=O)Cc1nnn(CC(=O)N2CCN(S(=O)(=O)c3ccc(OC(F)(F)F)cc3)[C@@H](C(=O)NCc3ccc(C(F)(F)CC)cc3)C2)n1 [Example 466, (2-{2-[(R)-3-[4-(1,1-difluoro-propyl)-benzylcarbamoyl]-4-(4-trifluoromethoxy-benzenesulfonyl)-piperazin-1-yl]-2-oxo-ethyl}-2H-tetrazol-5-yl)-acetic acid ethyl ester]",,,< 100,< 100
"CC(=O)N1CCN(S(=O)(=O)c2cccc(Cl)c2)C(C(=O)NCc2ccc(C(F)(F)F)cc2)C1 (centres unmarked) [Example 29, 4-acetyl-1-(3-chloro-benzenesulfonyl)-piperazine-2-carboxylic acid 4-trifluoromethyl-benzylamide]",,,> 1000,> 1000
"CC(C)c1ccc(S(=O)(=O)N2CCN(C(=O)COc3ccccc3)CC2C(=O)NCc2ccc(C(F)(F)F)cc2)cc1 (centres unmarked) [Example 125, 1-(4-isopropyl-benzenesulfonyl)-4-(2-phenoxy-acetyl)-piperazine-2-carboxylic acid 4-trifluoromethyl-benzylamide]",,,> 1000,> 1000
"O=C(O)c1cnc(N2CCN(S(=O)(=O)c3ccc(OC(F)(F)F)cc3)[C@@H](C(=O)NCc3ccc(OC(F)F)c(F)c3)C2)cn1 [Example 1111, (R)-3-(4-difluoromethoxy-3-fluoro-benzylcarbamoyl)-4-(4-trifluoromethoxy-benzenesulfonyl)-3,4,5,6-tetrahydro-2H-[1,2′]bipyrazinyl-5′-carboxylic acid]",< 100,< 100,,
"COC(=O)c1cc(S(=O)(=O)N2CCN(C(C)=O)C[C@@H]2C(=O)NCc2ccc(C(C)C)cc2)ccc1OC [Example 235, 5-[(R)-4-acetyl-2-(4-isopropyl-benzylcarbamoyl)-piperazine-1-sulfonyl]-2-methoxy-benzoic acid methyl ester]",,,> 1000,> 1000
"O=C(NCc1ccc(OC(F)(F)F)cc1)[C@H]1CN(c2nc3nc(NCCO)ncc3s2)CCN1S(=O)(=O)c1ccc(OC(F)(F)F)cc1 [Example 946, (R)-4-[5-(2-hydroxy-ethylamino)-thiazolo[4,5-d]pyrimidin-2-yl]-1-(4-trifluoromethoxy-benzenesulfonyl)-piperazine-2-carboxylic acid 4-trifluoromethoxy-benzylamide]",< 100,< 100,,
"CC(C)c1ccc(S(=O)(=O)N2CCN(C(=O)Cc3ccccc3)CC2C(=O)NCc2ccc(C(F)(F)F)cc2)cc1 (centres unmarked) [Example 124, 1-(4-isopropyl-benzenesulfonyl)-4-phenylacetyl-piperazine-2-carboxylic acid 4-trifluoromethyl-benzylamide]",,,> 1000,> 1000
"CCC(F)(F)c1ccc(CNC(=O)[C@H]2CN(c3ccnc(N)n3)CCN2S(=O)(=O)c2ccc(OC(F)(F)F)cc2)cc1 [Example 584, (R)-4-(2-amino-pyrimidin-4-yl)-1-(4-trifluoromethoxy-benzenesulfonyl)-piperazine-2-carboxylic acid 4-(1,1-difluoro-propyl)-benzylamide]",,,< 100,< 100
"CCCc1ccc(S(=O)(=O)N2CCN(c3nc(C(=O)O)cs3)C[C@@H]2C(=O)NCc2ccc(C(C)C)cc2)cc1 [Example 298, 2-[(R)-3-(4-isopropyl-benzylcarbamoyl)-4-(4-propyl-benzenesulfonyl)-piperazin-1-yl]-thiazole-4-carboxylic acid]",,,100 to 1000,100 to 1000
"CC(C)c1ccc(CNC(=O)[C@H]2CN(C(=N)N)CCN2S(=O)(=O)c2ccc(C(F)(F)F)cc2)cc1 [Example 313, (R)-4-carbamimidoyl-1-(4-trifluoromethyl-benzenesulfonyl)-piperazine-2-carboxylic acid 4-isopropyl-benzylamide hydrochloride]",,,< 100,< 100
"CCCc1ccc(CNC(=O)[C@H]2CN(C(=O)Nc3nc(CC(=O)N4CCOCC4)cs3)CCN2S(=O)(=O)c2ccc(OC(F)(F)F)cc2)cc1 [Example 475, (R)-4-(4-trifluoromethoxy-benzenesulfonyl)-piperazine-1,3-dicarboxylic acid 1-{[4-(2-morpholin-4-yl-2-oxo-ethyl)-thiazol-2-yl]-amide} 3-(4-propyl-benzylamide)]",,,< 100,100 to 1000
"Nc1nc(C2CC2)nc2nc(N3CCN(S(=O)(=O)c4ccc(OC(F)(F)F)cc4)[C@@H](C(=O)NCc4ccc(OC(F)(F)F)cc4)C3)sc12 [Example 1090, (R)-4-(7-amino-5-cyclopropyl-thiazolo[4,5-d]pyrimidin-2-yl)-1-(4-trifluoromethoxy-benzenesulfonyl)-piperazine-2-carboxylic acid 4-trifluoromethoxy-benzylamide]",< 100,< 100,,
"CCCc1ccc(CNC(=O)[C@H]2CN(c3cc(C)c(C(=O)OC)nn3)CCN2S(=O)(=O)c2ccc(OC(F)(F)F)cc2)cc1 [Example 486, 4-methyl-6-[(R)-3-(4-propyl-benzylcarbamoyl)-4-(4-trifluoromethoxy-benzenesulfonyl)-piperazin-1-yl]-pyridazine-3-carboxylic acid methyl ester]",,,< 100,< 100
"CCOC(=O)Cc1nnnn1CC(=O)N1CCN(S(=O)(=O)c2ccc(C(F)(F)F)cc2)[C@@H](C(=O)NCc2ccc(C(C)C)cc2)C1 [Example 311, (1-{2-[(R)-3-(4-isopropyl-benzylcarbamoyl)-4-(4-trifluoromethyl-benzenesulfonyl)-piperazin-1-yl]-2-oxo-ethyl}-1H-tetrazol-5-yl)-acetic acid ethyl ester]",,,100 to 1000,100 to 1000
